# Assay results as given in patent US5049506A, “Proline-containing decapeptides as substrates for factor XIII” (Behringwerke Aktiengesellschaft, priority 1987, dated 1991).
# Non-standard residues stand in square brackets, D forms with d. Residues, ends and D or L forms follow the SMILES beside them. Hyp = O=C(O)[C@@H]1C[C@@H](O)CN1
# Biological target: T1, factor XIII (Homo sapiens, UniProt P00488)
# T1 sequence (P00488 39-732 limits assumed): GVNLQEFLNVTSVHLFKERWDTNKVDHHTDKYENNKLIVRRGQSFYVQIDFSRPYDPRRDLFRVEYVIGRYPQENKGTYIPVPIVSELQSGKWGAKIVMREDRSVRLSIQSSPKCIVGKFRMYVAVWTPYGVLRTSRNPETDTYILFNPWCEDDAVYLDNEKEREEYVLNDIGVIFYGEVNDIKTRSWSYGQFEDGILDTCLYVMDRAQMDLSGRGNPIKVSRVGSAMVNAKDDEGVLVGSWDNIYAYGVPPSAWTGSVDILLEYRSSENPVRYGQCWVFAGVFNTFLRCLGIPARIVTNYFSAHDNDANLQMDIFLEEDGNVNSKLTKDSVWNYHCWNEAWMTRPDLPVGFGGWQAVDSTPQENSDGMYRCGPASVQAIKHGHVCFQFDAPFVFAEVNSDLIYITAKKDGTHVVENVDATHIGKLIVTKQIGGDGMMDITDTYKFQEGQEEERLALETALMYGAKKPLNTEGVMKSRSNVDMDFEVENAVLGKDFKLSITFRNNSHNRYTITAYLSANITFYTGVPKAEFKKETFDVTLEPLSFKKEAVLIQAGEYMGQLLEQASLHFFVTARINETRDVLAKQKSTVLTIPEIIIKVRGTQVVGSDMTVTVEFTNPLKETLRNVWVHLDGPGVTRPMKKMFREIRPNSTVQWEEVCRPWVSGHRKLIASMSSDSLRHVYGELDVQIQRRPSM
# Experiment: Determination of factor XIII activity by photometric measurement (peptide as substrate, NADH/GLDH-coupled ammonia detection)
# Format: biochemical
# Conditions: decrease in extinction at 340 nm; factor XIII 0.6 U activated with thrombin at 37° C. for 10 min; 100 μl decapeptide amide solution (10 mg/ml in H2O); glycine ethyl ester
# Description: To test the peptides for their suitability as substrates for the transglutaminase F XIII, a sample solution which contains factor XIII is activated in a buffer mixture which contains about 30mmol/1 calcium chloride at pH 7.6±0.5 with thrombin. The peptide solutions, a solution of an amine derivative, for example glycine ethyl ester or glycine methyl ester, ketoglutarate buffer, glutamic dehydrogenase and an NADH solution are then added. The liberation of ammonia from the decapeptide amide is then measured by means of the decrease in extinction at 340±15nm, and the activity of F XIII is determined.
# 50 μl of a solution containing factor XIII (0.6 U), which had been adjusted to pH 7.6 and which contained 50 millimolar HEPES, 150 milli molar sodium chloride and 30 millimolar CaC12, were incubated with 25 μl of thrombin solution (30 units dissolved in 1 ml physiological saline) in a 1 ml cuvette at 37° C. for 10 min. 700 μl of a buffer solution composed of triethanolamine pH 8.0, 2.2 g of alpha-ketoglutarate/liter and 133 mg of NADH/liter were added. The sample solution was then mixed with 25 μl of a solution of […] of glutamic dehydrogenase (about 120 units/mg), 100 ml of glycerol, pH 7, 100 μl of glycine ethyl ester (30 mg/ml in H2 O) and 100 μl of decapeptide amide solution (10 mg/ml in H2 O). The decrease in extinction was measured. The results of the kinetic measurement at 340 nm are to be found in the form of delta OD/min values in the following Tables.
row,Delta OD/min [OD/min],Compound
1,0.35,CC[C@H](C)[C@H](NC(=O)[C@@H](NC(=O)[C@H](CCCCN)NC(=O)[C@H](CO)NC(=O)[C@H](CCC(N)=O)NC(=O)CNC(=O)[C@@H]1CCCN1C(=O)CNC(=O)[C@@H](N)CC(C)C)C(C)C)C(=O)NCC(N)=O [Leu--Gly--Pro--Gly--Gln--Ser--Lys--Val--Ile--Gly--NH2] (H-LGPGQSKVIG-NH2)
2,0.32,CC(C)C[C@H](NC(=O)[C@@H](NC(=O)[C@H](CCCCN)NC(=O)[C@H](CO)NC(=O)[C@H](CCC(N)=O)NC(=O)CNC(=O)[C@@H]1CCCN1C(=O)CNC(=O)[C@@H](N)CC(C)C)C(C)C)C(=O)NCC(N)=O [Leu--Gly--Pro--Gly--Gln--Ser--Lys--Val--Leu--Gly--NH2] (H-LGPGQSKVLG-NH2)
3,0.27,CC(C)C[C@H](NC(=O)[C@@H](NC(=O)[C@H](CCCCN)NC(=O)[C@H](CO)NC(=O)[C@H](CCC(N)=O)NC(=O)CNC(=O)[C@@H]1C[C@@H](O)CN1C(=O)CNC(=O)[C@@H](N)CC(C)C)C(C)C)C(=O)NCC(N)=O [Leu--Gly--Hyp--Gly--Gln--Ser--Lys--Val--Leu--Gly--NH2] (H-LG[Hyp]GQSKVLG-NH2)
